Measured values reported in patent US5258406A, “Sulfonimidamides” (priority 1992, dated 1993).
Where two headings read alike, the source gives them in different places.

System: 6C3HED lymphosarcoma
Assay: animal or person
Assay type: in vivo
Conditions: for inhibition in vivo at 75 mg/kg: read-out: % inhibition of tumor growth, oral, 75 mg/kg, BIDX 8
Protocol: The compounds were tested in C3H mice bearing a 6C3HED lymphosarcoma, also known as the Gardner lymphosarcoma (GLS), and in a variety of human tumor xenografts in CD1 nu/nu mice, including CX-1, LX-1, HXGC3, and VRC5. The 6C3HED lymphosarcoma was obtained from the Division of Cancer Treatment, National […] Institute, Tumor Bank, maintained at E. G. and G. Mason Research (Worcester, Mass.). The CX-1 human colon carcinoma and the LX-1 human lung carcinoma xenografts were obtained from the National Cancer Institute. The HXGC3 and VRC5 human colon xenografts were obtained from Dr. P. J. Houghton, St. Jude Children's Hospital in Memphis (see Br. J. Cancer, 37, 213 (1978)). First passage tumor was stored in liquid nitrogen using standard techniques. The transplanted tumor was reestablished from the Tumor Bank every six months or as needed. The tumor was maintained by serial passage twice weekly in C3H mice.
In the procedure the tumor was removed from passage animals and minced into 1- to 3-mm square fragments using sterile techniques. Tumor pieces were checked for sterility using both Antibiotic Medium 1 and Brain Heart Infusion (Difco, Detroit, Mich.). Recipient mice were shaved and tumor pieces were implanted subcutaneously in the auxiliary region by trocar. Drug therapy on the appropriate schedule was initiated on the day after tumor implant for 6C3HED and after a seven (7) day delay for xenografts (or other delay as noted in Table 2). The compound being tested was mixed with 2.5% Emulphor EL620 from GAF Corporation (1:40 dilution in saline). Food and water were provided ad libitium. The drug was administered orally in 0.5 ml of 2.5% Emulphor (unless otherwise indicated). The tumor was measured the day after treatment ended with two dimensional measurements (width and length) of the tumor taken using automated digital calipers interfaced to a microcomputer. Approximate weight for the tumor was calculated using the following formula [Worzalla, J. F., et al., Invest. New Drugs, 8, 241 (1990], (tumor weight in mg)=(width in mm)^2 ×(length in mm)/2.
At least one control group of an equal number of mice was treated with the same volume of 2.5% Emulphor only. The percent inhibition was determined by subtracting the ratio of the mean tumor size of the test group relative to the control group from one and multiplying the result times 100.
The results of several experiments in mice bearing a 6C3HED lymphosarcoma (or other tumor where indicated) when the indicated compounds were administered are provided in Table 2. In Table 2, column 1 gives the Example number of the compound used, column 2 lists the dose level in mg/kg, column 3 provides the percent inhibition of tumor growth, column 4 gives the number of mice which died relative to the total number of animals in the group, column 5 gives the method of administration of the compound, and column 6 gives the dosage schedule. The protocol used with other tumors was the same as with the 6C3HED lymphosarcoma.

[1] = Mus musculus, 6C3HED, po, read-out: % inhibition of tumor growth, oral, 150 mg/kg, DX 8
[2] = Mus musculus, 6C3HED, po, read-out: % inhibition of tumor growth, oral, 300 mg/kg, DX 8
[3] = Mus musculus, 6C3HED, ip, read-out: % inhibition of tumor growth, IP, 150 mg/kg, DX 8
[4] = Mus musculus, 6C3HED, ip, read-out: % inhibition of tumor growth, IP, 300 mg/kg, DX 8
[5] = Mus musculus, 6C3HED, po, read-out: % inhibition of tumor growth, oral, 150 mg/kg, BIDX 8
[6] = Mus musculus, 6C3HED, po, read-out: % inhibition of tumor growth, oral, 300 mg/kg, BIDX 8

SMILES | Tox/Tot (mice which died / total) (oral, 150 mg/kg, DX 8) | Tox/Tot (mice which died / total) (oral, 300 mg/kg, DX 8) | Tox/Tot (mice which died / total) (IP, 150 mg/kg, DX 8) | Tox/Tot (mice which died / total) (IP, 300 mg/kg, DX 8) | inhibition in vivo at 150 mg/kg [3] | inhibition in vivo at 300 mg/kg [4] | inhibition in vivo at 150 mg/kg [5] | inhibition in vivo at 300 mg/kg [6] | Tox/Tot (mice which died / total) (oral, 150 mg/kg, BIDX 8) | Tox/Tot (mice which died / total) (oral, 300 mg/kg, BIDX 8) | also measured
Cc1ccc(S(=O)(=NC(=O)Nc2ccc(Cl)cc2)NCCO)cc1 (stereo not drawn) [Example 10] | 0/10 | 0/10 |  |  |  |  |  |  |  |  | inhibition in vivo at 150 mg/kg [1]: 40%; inhibition in vivo at 300 mg/kg [2]: 60%
Cc1ccc(S(=O)(=NC(=O)Nc2ccc(Cl)cc2)Nc2ccccc2)cc1 (stereo not drawn) [Example 14] | 0/10 | 0/10 | 2/10 | 3/10 | 1% | 38% |  |  |  |  | inhibition in vivo at 150 mg/kg [1]: 0%; inhibition in vivo at 300 mg/kg [2]: 5%
Cc1cc(S(N)(=O)=NC(=O)Nc2ccc(Cl)cc2)cc(C)c1Cl (stereo not drawn) [Example 61] |  |  | 2/10 | 10/10 | 72% |  | 0% | 0% | 0/10 | 0/10 | % inhibition of tumor growth (IP, 300 mg/kg, DX 8): TOX
Cc1ccc(S(=N)(=O)NC(=O)Nc2ccc(Br)cc2)cc1 (stereo not drawn) [Example 22, N-[[(4-bromophenyl)amino]carbonyl]-4-methylbenzenesulfonimidamide] |  |  |  |  |  |  | 100% | 100% | 0/10 | 3/10 | 
CC(=O)OCc1ccc(S(=N)(=O)NC(=O)Nc2ccc(Cl)cc2)cc1 (stereo not drawn) [Example 49, N-[[(4-chlorophenyl)amino]carbonyl]-4-(acetoxymethyl)benzenesulfonimidamide] |  |  | 8/10 | 10/10 | 99% |  | 99% | 100% | 0/10 | 3/10 | Tox/Tot (mice which died / total) (IP, 12.5 mg/kg, DX 8): 0/10; Tox/Tot (mice which died / total) (IP, 25 mg/kg, DX 8): 0/10; Tox/Tot (mice which died / total) (IP, 50 mg/kg, DX 8): 1/10; % inhibition of tumor growth (IP, 300 mg/kg, DX 8): TOX; inhibition in vivo at 12.5 mg/kg (Mus musculus, 6C3HED, ip, read-out: % inhibition of tumor growth, IP, 12.5 mg/kg, DX 8): 29%; inhibition in vivo at 25 mg/kg (Mus musculus, 6C3HED, ip, read-out: % inhibition of tumor growth, IP, 25 mg/kg, DX 8): 36%; inhibition in vivo at 50 mg/kg (Mus musculus, 6C3HED, ip, read-out: % inhibition of tumor growth, IP, 50 mg/kg, DX 8): 63%; inhibition in vivo at 25 mg/kg (Mus musculus, 6C3HED, po, read-out: % inhibition of tumor growth, oral, 25 mg/kg, BIDX 8): 64%; inhibition in vivo at 50 mg/kg (Mus musculus, 6C3HED, po, read-out: % inhibition of tumor growth, oral, 50 mg/kg, BIDX 8): 87%; inhibition in vivo at 75 mg/kg (Mus musculus, 6C3HED, po): 96%; Tox/Tot (mice which died / total) (oral, 25 mg/kg, BIDX 8): 0/10; Tox/Tot (mice which died / total) (oral, 50 mg/kg, BIDX 8): 0/10; Tox/Tot (mice which died / total) (oral, 75 mg/kg, BIDX 8): 0/10
Cc1ccc(S(=O)(=NC(=O)Nc2ccc(Cl)cc2)NCC(C)C)cc1 (stereo not drawn) [Example 8] |  |  |  |  |  |  | 97% |  |  | 10/10 | inhibition in vivo at 18.75 mg/kg (Mus musculus, 6C3HED, po, read-out: % inhibition of tumor growth, oral, 18.75 mg/kg, BIDX 8): 29%; inhibition in vivo at 25 mg/kg (Mus musculus, 6C3HED, po, read-out: % inhibition of tumor growth, oral, 25 mg/kg, DX 8): 28%; inhibition in vivo at 37.5 mg/kg (Mus musculus, 6C3HED, po, read-out: % inhibition of tumor growth, oral, 37.5 mg/kg, BIDX 8): 60%; inhibition in vivo at 50 mg/kg (Mus musculus, 6C3HED, po, read-out: % inhibition of tumor growth, oral, 50 mg/kg, DX 8): 31%; inhibition in vivo at 75 mg/kg (Mus musculus, 6C3HED, po): 85%; inhibition in vivo at 100 mg/kg (Mus musculus, 6C3HED, po, read-out: % inhibition of tumor growth, oral, 100 mg/kg, DX 8): 51%; Tox/Tot (mice which died / total) (oral, 18.75 mg/kg, BIDX 8): 0/10; Tox/Tot (mice which died / total) (oral, 25 mg/kg, DX 8): 0/10; Tox/Tot (mice which died / total) (oral, 37.5 mg/kg, BIDX 8): 0/10; Tox/Tot (mice which died / total) (oral, 50 mg/kg, DX 8): 0/10; Tox/Tot (mice which died / total) (oral, 75 mg/kg, BIDX 8): 0/10; Tox/Tot (mice which died / total) (oral, 100 mg/kg, DX 8): 0/10; % inhibition of tumor growth (oral, 150 mg/kg, BIDX 8): 98%; % inhibition of tumor growth (oral, 300 mg/kg, BIDX 8): TOX
CCN=S(=O)(NC(=O)Nc1ccc(Cl)cc1)c1ccc(C)cc1 (stereo not drawn) [Example 4, N-[[(4-chlorophenyl)amino]carbonyl]-N'-ethyl-4-methylbenzenesulfonimidamide] |  |  | 0/10 | 0/10 | 10% | 18% | 87% | 96% | 0/10 | 0/10 | 
Cc1ccc(S(N)(=O)=NC(=O)N(C)c2ccc(Cl)cc2)cc1 (stereo not drawn) [Example 20] |  |  |  |  |  |  | 83% | 93% | 0/10 | 0/10 | 
N=S(=O)(NC(=O)Nc1ccc(Cl)cc1)c1ccc2c(c1)CCC2 (stereo not drawn) [Example 54, N-[[(4-chlorophenyl)amino]carbonyl]-5-indanylsulfonimidamide] | 0/10 | 0/10 | 1/10 | 3/10 | 86% | 94% | 22% | 33% | 0/10 | 0/10 | Tox/Tot (mice which died / total) (IP, 12.5 mg/kg, BIDX 8): 0/10; Tox/Tot (mice which died / total) (IP, 25 mg/kg, BIDX 8): 0/10; Tox/Tot (mice which died / total) (IP, 50 mg/kg, BIDX 8): 0/10; Tox/Tot (mice which died / total) (IP, 100 mg/kg, BIDX 8): 0/10; Tox/Tot (mice which died / total) (IV, 12.5 mg/kg, DX 8): 0/10; Tox/Tot (mice which died / total) (IV, 25 mg/kg, DX 8): 0/10; inhibition in vivo at 12.5 mg/kg (Mus musculus, 6C3HED, ip, read-out: % inhibition of tumor growth, IP, 12.5 mg/kg, BIDX 8): 6%; inhibition in vivo at 25 mg/kg (Mus musculus, 6C3HED, ip, read-out: % inhibition of tumor growth, IP, 25 mg/kg, BIDX 8): 30%; inhibition in vivo at 50 mg/kg (Mus musculus, 6C3HED, ip, read-out: % inhibition of tumor growth, IP, 50 mg/kg, BIDX 8): 44%; inhibition in vivo at 100 mg/kg (Mus musculus, 6C3HED, ip, read-out: % inhibition of tumor growth, IP, 100 mg/kg, BIDX 8): 70%; inhibition in vivo at 12.5 mg/kg (Mus musculus, 6C3HED, iv, read-out: % inhibition of tumor growth, IV, 12.5 mg/kg, DX 8): 3%; inhibition in vivo at 25 mg/kg (Mus musculus, 6C3HED, iv, read-out: % inhibition of tumor growth, IV, 25 mg/kg, DX 8): 19%; inhibition in vivo at 600 mg/kg (Mus musculus, 6C3HED, po, read-out: % inhibition of tumor growth, oral, 600 mg/kg, DX 8): 34%; Tox/Tot (mice which died / total) (oral, 600 mg/kg, DX 8): 0/10
